Earlier results on one molecule are cited in patent US20080305171A1, “PYRROLOPYRAZINE, FORMULATIONS, METHODS OF MANUFACTURE, AND METHODS OF USE THERE” (priority 2007, published 2008).

Structures are written as SMILES.

For the data set the following is noted: ethanol:phosphate buffer solution, increasing temperature and pH.

For `CN1CCN(C(=O)OC2c3nccnc3C(=O)N2c2ccc(Cl)cn2)CC1` (racemic) [COMPOUND II, 6-(5-chloro-2-pyridyl)-5-[(4-methyl-1-piperazinyl)carbonyloxy]-7-oxo-6,7-dihydro-5H-pyrrolo[3,4-b]pyrazine], the “chemical and isomeric stability in solution” value is “both degrades and racemizes”.
